# Results reported in patent US20240158370A1, “CK1 alpha AND DUAL CK1 alpha / GSPT1 DEGRADING COMPOUNDS” (Innovo Therapeutics, Inc., priority 2022, published 2024).
# Columns and labels:
# GSPT1 = GSPT1 (Homo sapiens, UniProt P15170+Q96SW2); assay: HiBiT degradation assay, GSPT1, Procedure A; assay type: cell-based; set-up: HiBit-GSPT1 KI HEK293(LgBit) Cells; host or cells: HEK293(LgBit) knock-in cells
# Outline: (§1)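 Cells in DMEM + 10% FBS were treated with compound in a ten-point dose response from 10 μM to 0.005 μM (0.1% DMSO) for six hours at 37° C. Lysis with Nano-Glo HiBiT detection reagent followed, with luminescence read. DC50 and Ymin came from a 4-parameter fit.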
# CK1α = biological target: T1, CK1α (Homo sapiens, UniProt P48729+Q96SW2); assay: HiBiT degradation assay, CK1α, Procedure A; assay type: cell-based
# T1 construct: CSNK1A1-HiBit KI HEK293(LgBit) Cells; host or cells: HEK293(LgBit) knock-in cells
# Outline: as §1
# T1 sequence (P48729 whole entry): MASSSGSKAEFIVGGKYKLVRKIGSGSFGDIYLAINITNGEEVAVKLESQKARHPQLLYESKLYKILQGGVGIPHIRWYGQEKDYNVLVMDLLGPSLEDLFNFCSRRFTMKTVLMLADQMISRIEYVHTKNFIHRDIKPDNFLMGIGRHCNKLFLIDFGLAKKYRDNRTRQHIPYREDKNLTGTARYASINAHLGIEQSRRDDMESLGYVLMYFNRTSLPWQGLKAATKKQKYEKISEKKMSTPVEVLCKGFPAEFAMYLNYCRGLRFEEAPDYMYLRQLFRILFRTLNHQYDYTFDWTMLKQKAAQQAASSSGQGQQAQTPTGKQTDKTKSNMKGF
# T1 sequence (Q96SW2 whole entry): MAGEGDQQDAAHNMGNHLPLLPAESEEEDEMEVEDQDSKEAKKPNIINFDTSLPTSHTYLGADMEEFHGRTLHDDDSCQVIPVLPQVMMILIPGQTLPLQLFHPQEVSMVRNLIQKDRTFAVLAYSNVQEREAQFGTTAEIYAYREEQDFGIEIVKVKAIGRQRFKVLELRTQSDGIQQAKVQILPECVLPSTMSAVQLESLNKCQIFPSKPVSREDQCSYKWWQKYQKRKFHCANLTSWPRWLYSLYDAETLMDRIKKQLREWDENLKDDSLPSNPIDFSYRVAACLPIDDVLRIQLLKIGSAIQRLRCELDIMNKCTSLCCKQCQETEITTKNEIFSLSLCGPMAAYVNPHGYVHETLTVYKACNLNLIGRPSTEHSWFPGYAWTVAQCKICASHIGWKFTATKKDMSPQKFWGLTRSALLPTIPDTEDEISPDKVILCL
# T1 sequence (Q16531 whole entry partner): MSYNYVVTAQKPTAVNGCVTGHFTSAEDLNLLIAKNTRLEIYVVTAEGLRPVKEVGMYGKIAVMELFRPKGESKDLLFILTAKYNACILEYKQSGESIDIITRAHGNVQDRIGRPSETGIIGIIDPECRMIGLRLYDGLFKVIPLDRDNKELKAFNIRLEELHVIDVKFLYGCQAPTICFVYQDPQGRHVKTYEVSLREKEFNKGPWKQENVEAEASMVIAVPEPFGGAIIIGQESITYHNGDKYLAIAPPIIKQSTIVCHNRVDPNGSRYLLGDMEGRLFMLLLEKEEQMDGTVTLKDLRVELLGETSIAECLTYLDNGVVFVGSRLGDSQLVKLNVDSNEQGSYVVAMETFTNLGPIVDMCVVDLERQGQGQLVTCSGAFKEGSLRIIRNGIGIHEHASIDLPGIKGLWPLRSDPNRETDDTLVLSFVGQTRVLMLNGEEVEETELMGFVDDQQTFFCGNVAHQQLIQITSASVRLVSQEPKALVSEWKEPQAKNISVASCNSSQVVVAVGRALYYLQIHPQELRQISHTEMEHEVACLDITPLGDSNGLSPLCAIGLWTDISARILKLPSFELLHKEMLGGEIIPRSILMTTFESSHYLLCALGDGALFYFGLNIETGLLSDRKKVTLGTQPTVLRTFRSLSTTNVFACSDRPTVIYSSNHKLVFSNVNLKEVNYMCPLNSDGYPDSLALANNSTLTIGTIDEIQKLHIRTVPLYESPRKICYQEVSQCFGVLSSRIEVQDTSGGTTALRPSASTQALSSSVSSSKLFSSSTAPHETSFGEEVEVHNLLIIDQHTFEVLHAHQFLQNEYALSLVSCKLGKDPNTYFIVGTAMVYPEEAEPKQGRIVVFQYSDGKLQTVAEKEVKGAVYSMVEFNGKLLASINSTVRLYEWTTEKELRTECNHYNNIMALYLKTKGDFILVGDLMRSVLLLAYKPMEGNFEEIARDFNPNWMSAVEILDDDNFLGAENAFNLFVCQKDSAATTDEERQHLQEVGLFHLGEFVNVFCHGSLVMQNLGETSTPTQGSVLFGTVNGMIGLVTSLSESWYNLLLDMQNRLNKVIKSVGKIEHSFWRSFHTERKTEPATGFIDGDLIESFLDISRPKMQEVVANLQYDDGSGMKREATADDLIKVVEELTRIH
# GSPT1, sequence (P15170 whole entry): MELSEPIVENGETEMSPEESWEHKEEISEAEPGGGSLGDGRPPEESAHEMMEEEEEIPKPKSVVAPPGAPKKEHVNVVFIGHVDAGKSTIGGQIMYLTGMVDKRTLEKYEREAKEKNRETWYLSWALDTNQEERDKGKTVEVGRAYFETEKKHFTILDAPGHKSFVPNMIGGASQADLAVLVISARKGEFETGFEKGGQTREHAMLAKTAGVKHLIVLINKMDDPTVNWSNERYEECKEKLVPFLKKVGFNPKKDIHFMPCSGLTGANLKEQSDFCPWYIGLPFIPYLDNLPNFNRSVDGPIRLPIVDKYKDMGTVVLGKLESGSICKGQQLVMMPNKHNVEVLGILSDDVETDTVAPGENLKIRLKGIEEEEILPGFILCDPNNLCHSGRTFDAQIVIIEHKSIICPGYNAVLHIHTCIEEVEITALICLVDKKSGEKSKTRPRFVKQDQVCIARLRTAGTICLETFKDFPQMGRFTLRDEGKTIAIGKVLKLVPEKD
# GSPT1, sequence (Q96SW2 whole entry): as the sequence (Q96SW2 whole entry) above
# GSPT1, sequence (Q16531 whole entry partner): as the sequence (Q16531 whole entry partner) above
SMILES,DC50 (GSPT1; six hours incubation),GSPT1 Ymin (GSPT1; six hours incubation),CK1α Ymin (CK1α; six hours incubation),DC50 (CK1α; six hours incubation),DC50 (GSPT1; six hours),GSPT1 Ymin (GSPT1; six hours),CK1α Ymin (CK1α; six hours),DC50 (CK1α; six hours)
Cn1ncc(-c2ccc3c(c2)CN(C2CCC(=O)NC2=O)C3=O)c1-c1ccn(-c2ccc(F)cc2)n1 (stereo not shown) [Example 396],,,,,≥ 25 nM,F (F = >75-100% remaining),E (E = >25-75% remaining),< 25 nM
Cc1cc(C)cc(-c2nc(-c3ccc4c(c3)CN(C3CCC(=O)NC3=O)C4=O)cn2C)c1 (stereo not shown) [Example 576],,,,,< 25 nM,F (F = >75-100% remaining),C (C = 0-10% remaining),< 25 nM
Cn1ncc(-c2ccc3c(c2)CN(C2CCC(=O)NC2=O)C3=O)c1C1=CCOC1 (stereo not shown) [Example 593],,,,,≥ 25 nM,F (F = >75-100% remaining),E (E = >25-75% remaining),≥ 25 nM
COc1ccncc1-c1c(-c2ccc3c(c2)CN(C2CCC(=O)NC2=O)C3=O)cnn1C (stereo not shown) [Example 458],,,,,< 25 nM,F (F = >75-100% remaining),F (F = >75-100% remaining),< 25 nM
Cn1ncc(-c2ccc3c(c2)CN(C2CCC(=O)NC2=O)C3=O)c1-c1cccnc1 (stereo not shown) [Example 360],≥ 25 nM,F (F = >75-100% remaining),D (D = >10- 25% remaining),< 25 nM,,,,
Cc1occc1-c1c(-c2ccc3c(c2)CN(C2CCC(=O)NC2=O)C3=O)cnn1C (stereo not shown) [Example 364],≥ 25 nM,F (F = >75-100% remaining),D (D = >10- 25% remaining),≥ 25 nM,,,,
"O=C1CCC(N2Cc3cc(-n4ccc(-c5ccccc5)n4)ccc3C2=O)C(=O)N1 (stereo not shown) [Example 551, 3-(1-oxo-5-(3-phenyl-1H-pyrazol-1-yl)isoindolin-2-yl)piperidine-2,6-dione]",,,,,≥ 25 nM,F (F = >75-100% remaining),E (E = >25-75% remaining),< 25 nM
"Cn1c(C2CC2)nc(-c2ccc3c(c2)CN(C2CCC(=O)NC2=O)C3=O)c1-c1cccnc1 (stereo not shown) [Example 44, 3-(5-(2-Cyclopropyl-1-methyl-5-(pyridin-3-yl)-1H-imidazol-4-yl)-1-oxoisoindolin-2-yl)piperidine-2,6-dione]",≥ 25 nM,F (F = >75-100% remaining),C (C = 0-10% remaining),< 25 nM,,,,
"CC(C)c1nc(-c2ccc3c(c2)CN(C2CCC(=O)NC2=O)C3=O)c(-c2cncnc2)n1C (stereo not shown) [Example 543, 3-[5-(2-isopropyl-1-methyl-5-pyrimidin-5-yl-imidazol-4-yl)-1-oxo-isoindolin-2-yl]piperidine-2,6-dione]",,,,,≥ 25 nM,F (F = >75-100% remaining),C (C = 0-10% remaining),< 25 nM
Cc1nc2ccc(-c3c(-c4ccc5c(c4)CN(C4CCC(=O)NC4=O)C5=O)ncn3C)cc2[nH]1 (stereo not shown) [Example 501],,,,,≥ 25 nM,F (F = >75-100% remaining),C (C = 0-10% remaining),< 25 nM
Cn1ncc(-c2ccc3c(c2)CN(C2CCC(=O)NC2=O)C3=O)c1-c1ccc(C2(C#N)CC2)cc1 (stereo not shown) [Example 110],≥ 25 nM,F (F = >75-100% remaining),E (E = >25-75% remaining),< 25 nM,,,,
Cn1cnc(-c2ccc3c(c2)CN(C2CCC(=O)NC2=O)C3=O)c1-c1ccc(C#N)s1 (stereo not shown) [Example 342],≥ 25 nM,F (F = >75-100% remaining),F (F = >75-100% remaining),≥ 25 nM,,,,
Cn1ncc(-c2ccc3c(c2)CN(C2CCC(=O)NC2=O)C3=O)c1-c1ccc2occc2c1 (stereo not shown) [Example 381],,,,,≥ 25 nM,F (F = >75-100% remaining),D (D = >10- 25% remaining),< 25 nM
COc1ccc(Cl)cc1-c1c(-c2ccc3c(c2)CN(C2CCC(=O)NC2=O)C3=O)ncn1C (stereo not shown) [Example 274],≥ 25 nM,F (F = >75-100% remaining),E (E = >25-75% remaining),< 25 nM,,,,
Cn1ncc(-c2ccc3c(c2)CN(C2CCC(=O)NC2=O)C3=O)c1-c1cncc(N)c1 (stereo not shown) [Example 371],≥ 25 nM,F (F = >75-100% remaining),D (D = >10- 25% remaining),≥ 25 nM,,,,
"O=C1CCC(N2Cc3cc(-c4cc(-c5ccccc5)[nH]n4)ccc3C2=O)C(=O)N1 (stereo not shown) [Example 210, 3-(1-Oxo-5-(5-phenyl-1H-pyrazol-3-yl)isoindolin-2-yl)piperidine-2,6-dione]",≥ 25 nM,F (F = >75-100% remaining),D (D = >10- 25% remaining),< 25 nM,,,,
Cn1ncc(-c2ccc3c(c2)CN(C2CCC(=O)NC2=O)C3=O)c1-c1ccccc1C(F)(F)F (stereo not shown) [Example 71],≥ 25 nM,F (F = >75-100% remaining),F (F = >75-100% remaining),< 25 nM,,,,
Cn1cnc(-c2ccc3c(c2)CN(C2CCC(=O)NC2=O)C3=O)c1-c1ccccc1C(F)(F)F (stereo not shown) [Example 282],≥ 25 nM,F (F = >75-100% remaining),E (E = >25-75% remaining),< 25 nM,,,,
Cn1cnc(-c2ccc3c(c2)CN(C2CCC(=O)NC2=O)C3=O)c1-c1ccc(C#N)cc1F (stereo not shown) [Example 187],≥ 25 nM,F (F = >75-100% remaining),D (D = >10- 25% remaining),< 25 nM,,,,
CNC(=O)c1cccc(-c2c(-c3ccc4c(c3)CN(C3CCC(=O)NC3=O)C4=O)cnn2C)c1 (stereo not shown) [Example 122],≥ 25 nM,F (F = >75-100% remaining),E (E = >25-75% remaining),≥ 25 nM,,,,
Cc1cc(-c2c(-c3ccc4c(c3)CN(C3CCC(=O)NC3=O)C4=O)ncn2C)ccn1 (stereo not shown) [Example 398],,,,,< 25 nM,F (F = >75-100% remaining),D (D = >10- 25% remaining),< 25 nM
Cc1ccc(-c2nc(-c3ccc4c(c3)CN(C3CCC(=O)NC3=O)C4=O)cn2C)cc1C (stereo not shown) [Example 566],,,,,≥ 25 nM,E (E = >25-75% remaining),C (C = 0-10% remaining),< 25 nM

# Continued, values first:
DC50 (GSPT1; six hours incubation),GSPT1 Ymin (GSPT1; six hours incubation),CK1α Ymin (CK1α; six hours incubation),DC50 (CK1α; six hours incubation),DC50 (GSPT1; six hours),GSPT1 Ymin (GSPT1; six hours),CK1α Ymin (CK1α; six hours),DC50 (CK1α; six hours),SMILES
≥ 25 nM,F (F = >75-100% remaining),D (D = >10- 25% remaining),< 25 nM,,,,,Cc1ccc(C)c(-c2c(-c3ccc4c(c3)CN(C3CCC(=O)NC3=O)C4=O)ncn2C)c1 (stereo not shown) [Example 234]
< 25 nM,F (F = >75-100% remaining),D (D = >10- 25% remaining),≥ 25 nM,,,,,Cn1cnc(-c2ccc3c(c2)CN(C2CCC(=O)NC2=O)C3=O)c1-c1ccc(C(=O)NCc2ccccc2)c(Cl)c1 (stereo not shown) [Example 307]
≥ 25 nM,F (F = >75-100% remaining),E (E = >25-75% remaining),≥ 25 nM,,,,,"O=C1CCC(N2Cc3cc(-c4ccnn4-c4ccccc4)ccc3C2=O)C(=O)N1 (stereo not shown) [Example 6, 3-(1-oxo-5-(1-phenyl-1H-pyrazol-5-yl)isoindolin-2-yl)piperidine-2,6-dione]"
≥ 25 nM,E (E = >25-75% remaining),C (C = 0-10% remaining),< 25 nM,,,,,"O=C1CCC(N2Cc3cc(-c4nc(C(F)(F)F)[nH]c4-c4ccccc4)ccc3C2=O)C(=O)N1 (stereo not shown) [Example 53, 3-(1-Oxo-5-(5-phenyl-2-(trifluoromethyl)-1H-imidazol-4-yl)isoindolin-2-yl)piperidine-2,6-dione]"
≥ 25 nM,F (F = >75-100% remaining),E (E = >25-75% remaining),< 25 nM,,,,,Cn1ncc(-c2ccc3c(c2)CN(C2CCC(=O)NC2=O)C3=O)c1-c1cccc2c1CCC2 (stereo not shown) [Example 114]
≥ 25 nM,F (F = >75-100% remaining),E (E = >25-75% remaining),≥ 25 nM,,,,,Cn1ncc(-c2ccc3c(c2)CN(C2CCC(=O)NC2=O)C3=O)c1-c1cccc(CN2CCCC2)c1 (stereo not shown) [Example 158]
≥ 25 nM,E (E = >25-75% remaining),D (D = >10- 25% remaining),≥ 25 nM,,,,,Cn1cnc(-c2ccc3c(c2)CN(C2CCC(=O)NC2=O)C3=O)c1-c1cccc(C(N)=O)c1 (stereo not shown) [Example 248]
< 25 nM,F (F = >75-100% remaining),E (E = >25-75% remaining),< 25 nM,,,,,Cc1cccc(-c2c(-c3ccc4c(c3)CN(C3CCC(=O)NC3=O)C4=O)ncn2C)c1C (stereo not shown) [Example 167]
< 25 nM,E (E = >25-75% remaining),D (D = >10- 25% remaining),< 25 nM,,,,,Cn1cnc(-c2ccc3c(c2)CN(C2CCC(=O)NC2=O)C3=O)c1-c1ccc(Cl)cc1Cl (stereo not shown) [Example 286]
< 25 nM,F (F = >75-100% remaining),D (D = >10- 25% remaining),< 25 nM,,,,,Cn1cnc(-c2ccc3c(c2)CN(C2CCC(=O)NC2=O)C3=O)c1-c1ccc(Cl)c(F)c1 (stereo not shown) [Example 260]
< 25 nM,F (F = >75-100% remaining),C (C = 0-10% remaining),< 25 nM,,,,,Cc1c(-c2c(-c3ccc4c(c3)CN(C3CCC(=O)NC3=O)C4=O)ncn2C)cnn1C (stereo not shown) [Example 322]
< 25 nM,F (F = >75-100% remaining),C (C = 0-10% remaining),< 25 nM,,,,,Cc1ccc(-c2c(-c3ccc4c(c3)CN(C3CCC(=O)NC3=O)C4=O)ncn2C)c(F)c1 (stereo not shown) [Example 239]
